# Measurements: patent US8846737B2, “Compound” (Sterix Limited, priority 2009, dated 2014)
# Columns and labels:
# Aromatase = target: T1, Aromatase (Homo sapiens, UniProt P11511); experiment: Aromatase activity in JEG3 cells (Protocol 6); assay type: cell-based; conditions: intact JEG3 cells, [1β-3H]androstenedione, 30 min
# T1 construct: host or cells: JEG3 choriocarcinoma cells, intact monolayers
# T1 sequence (P11511 1-503): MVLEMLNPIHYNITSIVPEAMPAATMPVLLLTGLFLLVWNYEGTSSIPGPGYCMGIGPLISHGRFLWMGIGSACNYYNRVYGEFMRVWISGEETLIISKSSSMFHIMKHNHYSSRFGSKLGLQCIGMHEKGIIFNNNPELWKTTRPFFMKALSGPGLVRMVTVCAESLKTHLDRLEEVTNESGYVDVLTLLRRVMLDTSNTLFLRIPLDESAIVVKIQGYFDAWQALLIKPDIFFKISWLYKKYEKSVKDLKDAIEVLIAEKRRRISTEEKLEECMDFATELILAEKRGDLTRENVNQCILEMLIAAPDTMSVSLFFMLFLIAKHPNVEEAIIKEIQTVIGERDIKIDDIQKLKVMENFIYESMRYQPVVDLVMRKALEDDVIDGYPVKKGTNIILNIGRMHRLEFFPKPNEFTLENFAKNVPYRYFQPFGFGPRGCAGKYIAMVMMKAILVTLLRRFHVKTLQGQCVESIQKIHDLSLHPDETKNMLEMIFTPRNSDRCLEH
# Method: Assay for Determining Aromatase Activity Using JEG3 Cells
# Aromatase activity is measured in JEG3 choriocarcinoma cells, obtained from the ATCC. […] During the aromatase reaction, ^3H2O is liberated which can be quantified using a liquid scintillation spectrometer. […] The number of cell nuclei per flask is determined using a Coulter Counter after treating the cell monolayers with Zaponin.
# Aromatase inhibition was measured in accordance with Protocol 6.
# Steroid sulphatase (STS) = target: T2, Steroid sulphatase (STS) (Homo sapiens, UniProt P08842); experiment: Inhibition of steroid sulphatase activity in JEG3 cells (Protocol 1); assay type: cell-based; conditions: intact JEG3 cells, [6,7-3H]oestrone-3-sulphate, 3-4 hours
# T2 construct: host or cells: JEG3 choriocarcinoma cells, intact monolayers
# T2 sequence (P08842 22-583): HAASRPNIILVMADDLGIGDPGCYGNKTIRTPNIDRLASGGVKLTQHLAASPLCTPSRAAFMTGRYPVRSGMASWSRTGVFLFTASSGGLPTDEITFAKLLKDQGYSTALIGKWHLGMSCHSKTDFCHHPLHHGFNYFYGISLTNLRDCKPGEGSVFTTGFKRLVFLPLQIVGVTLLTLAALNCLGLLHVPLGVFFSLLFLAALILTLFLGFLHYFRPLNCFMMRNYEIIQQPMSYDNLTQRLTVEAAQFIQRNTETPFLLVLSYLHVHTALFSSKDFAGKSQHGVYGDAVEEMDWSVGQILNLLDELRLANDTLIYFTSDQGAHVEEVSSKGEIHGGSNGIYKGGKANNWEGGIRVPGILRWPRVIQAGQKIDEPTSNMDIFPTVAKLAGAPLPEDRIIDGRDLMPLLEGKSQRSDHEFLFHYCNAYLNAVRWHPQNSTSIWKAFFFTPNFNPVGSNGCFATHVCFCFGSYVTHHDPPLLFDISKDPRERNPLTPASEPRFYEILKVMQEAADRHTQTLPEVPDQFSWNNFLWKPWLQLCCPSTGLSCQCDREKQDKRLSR
# Method: Assay for Determining STS Activity Using Cancer Cells
# Inhibition of Steroid Sulphatase Activity in JEG3 Cells
# Steroid sulphatase activity is measured in vitro using intact JEG3 choriocarcinoma cells.
# Cells are maintained in Minimal Essential Medium (MEM) containing 20 mM HEPES, 5% foetal bovine serum, 2 mM glutamine, non-essential amino acids and 0.075% sodium bicarbonate. Up to 30 replicate 25 cm^2 tissue culture flasks are seeded with approximately 1×10^5 cells/flask using the above medium Cells are grown to 80% confluency and the medium is changed every third day.
# Intact monolayers of JEG3 cells in triplicate 25 cm^2 tissue culture flasks are washed with Earle's Balanced Salt Solution (EBSS) and incubated for 3-4 hours at 37° C. with 5 pmol (7×10^5 dpm) [6, 7-3H]oestrone-3-sulphate (specific activity 60 Ci/mmol) in serum-free MEM (2.5 ml) together with oestrone-3-sulphamate (11 concentrations: 0; 1fM; 0.01 pM; 0.1 pM, 1 pM; 0.01 nM; 0.1 nM; 0.01 mM; 0.1 mM; 1 mM). After incubation each flask is cooled and the medium (1 ml) is pipetted into separate tubes containing [14C]oestrone (7×10^3 dpm) (specific activity 97 Ci/mmol). The mixture is shaken thoroughly for 30 seconds with toluene (5 ml) Experiments have shown that >90% [14C]oestrone and <0 1% [3H]oestrone-3-sulphate is removed from the aqueous phase by this treatment A portion (2 ml) of the organic phase is removed, evaporated and the 3H and 14C content of the residue determined by scintillation spectrometry The mass of oestrone-3-sulphate hydrolysed was calculated from the 3H counts obtained (corrected for the volumes of the medium and organic phase used, and for recovery of [14C] oestrone added) and the specific activity of the substrate Each batch of experiments includes incubations of microsomes prepared from a sulphatase-positive human placenta (positive control) and flasks without cells (to assess apparent non-enzymatic hydrolysis of the substrate). The number of cell nuclei per flask is determined using a Coulter Counter after treating the cell monolayers with Zaponin One flask in each batch is used to assess cell membrane status and viability using the Trypan Blue exclusion method (Phillips, H J. (1973) In: Tissue culture and applications, [eds: Kruse, D. F. & Patterson, M. K]; pp 406-408; Academic Press, New York)
# Results for steroid sulphatase activity are expressed as the mean±1S.D. of the total product (oestrone+oestradiol) formed during the incubation period (3-4 hours) calculated for […] and, for values showing statistical significance, as a percentage reduction (inhibition) over incubations containing no oestrone-3-sulphamate. Unpaired Student's t-test was used to test the statistical significance of results
# Sterioid sulphatase inhibition was measured in accordance with Protocol 1
structure (smiles),measurement,setting,value
"N#Cc1ccc(N(Cc2ccc(O)cc2)n2cnnc2)cc1-c1ccccc1 [CAB06021, 5-((4-Hydroxybenzyl)(4H-1,2,4-triazol-4-yl)amino)biphenyl-2-carbonitrile]",IC50,Aromatase,< 0.1 nM
"N#Cc1ccc(Nn2cnnc2)cc1-c1ccccc1 [CAB06022, 5-(4H-1,2,4-Triazol-4-ylamino)biphenyl-2-carbonitrile]",IC50,Aromatase,0.39 ± 0.09 nM
"N#Cc1ccc(N(Cc2ccc(OS(N)(=O)=O)cc2)n2cnnc2)cc1-c1ccccc1 [CAB06025, 4-(((6-Cyanobiphenyl-3-yl)(4H-1,2,4-triazol-4-yl)amino)methyl)phenyl sulfamate]",IC50,Aromatase,0.14 ± 0.01 nM
same,IC50,Steroid sulphatase (STS),17 ± 2 nM
"N#Cc1ccc(N(Cc2ccc(O)c(Br)c2)n2cnnc2)cc1-c1ccccc1 [CAB06026, 5-((3-Bromo-4-hydroxybenzyl)(4H-1,2,4-triazol-4-yl)amino)biphenyl-2-carbonitrile]",IC50,Aromatase,3.6 ± 0.4 nM
"N#Cc1ccc(N(Cc2ccc(O)c(F)c2)n2cnnc2)cc1-c1ccccc1 [CAB06043, 5-((3-Fluoro-4-hydroxybenzyl)(4H-1,2,4-triazol-4-yl)amino)biphenyl-2-carbonitrile]",IC50,Aromatase,1.6 ± 0.6 nM
"N#Cc1ccc(N(Cc2ccc(OS(N)(=O)=O)c(F)c2)n2cnnc2)cc1-c1ccccc1 [CAB06044, 4-(((6-Cyanobiphenyl-3-yl)(4H-1,2,4-triazol-4-yl)amino)methyl)-2-fluorophenyl sulfamate]",IC50,Aromatase,0.15 ± 0.03 nM
same,IC50,Steroid sulphatase (STS),2.3 ± 0.9 nM
"N#Cc1ccc(N(Cc2ccc(OS(N)(=O)=O)c(Br)c2)n2cnnc2)cc1-c1ccccc1 [CAB06045, 2-Bromo-4-(((6-cyanobiphenyl-3-yl)(4H-1,2,4-triazol-4-yl)amino)methyl)phenyl sulfamate]",IC50,Aromatase,0.018 ± 0.01 nM
same,IC50,Steroid sulphatase (STS),0.13 ± 0.01 nM
"COc1ccc(-c2cc(Nn3cnnc3)ccc2C#N)cc1 [CAB06046, 5-(4H-1,2,4-Triazol-4-ylamino)-4′-methoxybiphenyl-2-carbonitrile]",IC50,Aromatase,0.26 ± 0.12 nM
"N#Cc1ccc(N(Cc2ccc(OS(N)(=O)=O)c(Cl)c2)n2cnnc2)cc1-c1ccccc1 [CAB06049, 2-Chloro-4-(((6-cyanobiphenyl-3-yl)(4H-1,2,4-triazol-4-yl)amino)methyl)phenyl sulfamate]",IC50,Aromatase,0.015 ± 0.005 nM
same,IC50,Steroid sulphatase (STS),0.83 ± 0.15 nM
"N#Cc1ccc(N(Cc2ccccc2)n2cnnc2)cc1-c1ccc(O)cc1 [CAB06052, 5-(Benzyl-[1,2,4]triazol-4-yl-amino)-4′-hydroxy-biphenyl-2-carbonitrile]",IC50,Aromatase,0.33 ± 0.01 nM
"N#Cc1ccc(N(Cc2ccccc2)n2cnnc2)cc1-c1ccc(OS(N)(=O)=O)cc1 [CAB06054, 5′-(Benzyl(4H-1,2,4-triazol-4-yl)amino)-2′-cyanobiphenyl-4-yl sulfamate]",IC50,Aromatase,0.1 ± 0.02 nM
same,IC50,Steroid sulphatase (STS),2900 ± 180 nM
"N#Cc1ccc(N(Cc2ccc(Br)cc2)n2cnnc2)cc1-c1ccc(OS(N)(=O)=O)cc1 [CAB06059, 5′-((4-Bromobenzyl)(4H-1,2,4-triazol-4-yl)amino)-2′-cyanobiphenyl-4-yl sulfamate]",IC50,Aromatase,0.05 ± 0.01 nM
same,IC50,Steroid sulphatase (STS),2900 ± 100 nM
COc1ccc(-c2cc(N(Cc3ccc(OS(N)(=O)=O)cc3)n3cnnc3)ccc2C#N)cc1 [CAB06077],IC50,Aromatase,0.015 ± 0.001 nM
same,IC50,Steroid sulphatase (STS),22 ± 6 nM
"N#Cc1ccc(N(Cc2ccc(OS(N)(=O)=O)cc2)n2cnnc2)cc1-c1ccc(F)cc1 [CAB06078, 4-(((6-Cyano-4′-fluorobiphenyl-3-yl)(4H-1,2,4-triazol-4-yl)amino)methyl)phenyl sulfamate]",IC50,Aromatase,0.47 ± 0.18 nM
same,IC50,Steroid sulphatase (STS),55 ± 6 nM
"N#Cc1ccc(-c2cc(N(Cc3ccc(OS(N)(=O)=O)cc3)n3cnnc3)ccc2C#N)cc1 [CAB06088, 4-(((4′,6-Dicyanobiphenyl-3-yl)(4H-1,2,4-triazol-4-yl)amino)methyl)phenyl sulfamate]",IC50,Aromatase,0.75 ± 0.18 nM
same,IC50,Steroid sulphatase (STS),240 ± 60 nM
N#Cc1ccc(N(Cc2ccc(Br)cc2)n2cnnc2)cc1-c1ccccc1 [Compound 1],IC50,Aromatase,< 0.1 nM
N#Cc1ccc(N(Cc2ccc(Br)cc2)n2cnnc2)c(-c2ccccc2)c1 [Compound 2],IC50,Aromatase,960 ± 53 nM
N#Cc1ccc(N(Cc2ccc(OS(N)(=O)=O)cc2)n2cnnc2)cc1-c1ccccc1 [Compound 3],IC50,Aromatase,0.25 ± 0.03 nM
same,IC50,Steroid sulphatase (STS),3 ± 0.5 nM
N#Cc1ccc(N(Cc2ccc(OS(N)(=O)=O)c(Br)c2)n2cnnc2)cc1-c1ccsc1 [Compound 9],IC50,Aromatase,2.6 ± 0.2 nM
same,IC50,Steroid sulphatase (STS),3.9 ± 0.8 nM
N#Cc1ccc(N(Cc2ccc(OS(N)(=O)=O)cc2)n2cnnc2)cc1N1CCCCCC1=O [Compound 11],IC50,Aromatase,850 ± 104 nM
same,IC50,Steroid sulphatase (STS),1300 ± 265 nM
N#Cc1ccc(N(Cc2ccc(O)cc2)n2cnnc2)cc1Cc1ccccc1 [Compound 12],IC50,Aromatase,< 0.1 nM
N#Cc1ccc(N(Cc2ccc(OS(N)(=O)=O)cc2)n2cnnc2)cc1Cc1ccccc1 [Compound 13],IC50,Aromatase,< 0.1 nM
same,IC50,Steroid sulphatase (STS),41 ± 3 nM
N#Cc1ccc(N(Cc2ccc(OS(N)(=O)=O)cc2)n2cnnc2)cc1N1CCCC1 [Compound 15],IC50,Aromatase,< 0.1 nM
same,IC50,Steroid sulphatase (STS),60 ± 7 nM
N#Cc1ccc(N(Cc2ccc(OS(N)(=O)=O)cc2)n2cnnc2)cc1N1CCOCC1 [Compound 21],IC50,Aromatase,44 ± 5 nM
CN1CCN(c2cc(N(Cc3ccc(O)cc3)n3cnnc3)ccc2C#N)CC1 [Compound 22],IC50,Aromatase,13.8 ± 4.51 nM
N#Cc1ccc(N(CCc2c(F)cc(O)cc2F)n2cnnc2)cc1 [Compound 24],IC50,Aromatase,0.14 ± 0.03 nM
N#Cc1ccc(N(CCc2c(F)cc(OS(N)(=O)=O)cc2F)n2cnnc2)cc1 [Compound 25],IC50,Steroid sulphatase (STS),485 ± 50.7 nM
N#Cc1ccc(N(Cc2ccc(OS(N)(=O)=O)cc2)n2cnnc2)c2ccccc12 [Compound 27],IC50,Aromatase,200 ± 5 nM
N#Cc1ccc(N(Cc2ccc(O)cc2F)n2cnnc2)cc1-c1ccccc1 [Compound 30],IC50,Aromatase,0.35 ± 0.06 nM
N#Cc1ccc(N(Cc2ccc(O)c(F)c2F)n2cnnc2)cc1-c1ccccc1 [Compound 33],IC50,Aromatase,1 ± 0.3 nM
COc1ccc(-c2cc(N(Cc3c(F)cc(O)cc3F)n3cnnc3)ccc2C#N)cc1 [Compound 35],IC50,Aromatase,< 0.1 nM
N#Cc1ccc(C(c2ccc(O)cc2)n2cncn2)cc1-c1ccccc1 (stereo not drawn) [Compound 37],IC50,Aromatase,0.23 ± 0.04 nM
N#Cc1ccc(N(Cc2ccc(O)cc2)n2cnnc2)cc1CN1CCCC1 [Compound 40],IC50,Aromatase,8 nM
COc1ccc(Cc2cc(N(Cc3ccc(O)cc3)n3cnnc3)ccc2C#N)cc1 [Compound 44],IC50,Aromatase,3.1 ± 0.4 nM
N#Cc1ccc(N(Cc2c(F)cc(O)cc2F)n2cnnc2)cc1-c1ccc(F)cc1 [Compound 46],IC50,Aromatase,4.1 ± 0.2 nM
N#Cc1ccc(N(Cc2ccc(O)cc2)n2cnnc2)cc1-c1ccncc1 [Compound 50],IC50,Aromatase,4.03 ± 0.29 nM
N#Cc1ccc(N(Cc2ccc(O)cc2)n2cnnc2)cc1Oc1ccccc1 [Compound 56],IC50,Aromatase,1.82 ± 0.03 nM
